Measured values taken from patent publication US6835846B2, “Aliphatic compounds, process for their preparation and their usage” (Maruha Corporation, priority 2000, dated 2004).

What was measured:
[1] = tested on: endothelial cell-neutrophil interaction; assay: Anti-inflammatory tests using pseudo-blood vessel model (neutrophil transmigration and adhesion); type: cell-based, bovine; details: for neutrophil transmigration and adhesion: 0.1 and 1 microM compound, 10 microM AHOP in lower compartment, FIG. 4
Procedure: Transwells were used, each consisting of an upper compartment separated from a lower compartment by a porous membrane. A single layer of bovine endothelial cells was cultured on the porous membrane at the bottom surface of the transwell upper compartment. A suspension of fluorescence-labeled neutrophils was added to the transwell upper compartment, and AHOP was suspended within the lower compartment to an end concentration of 0.1 to 10 microM. That is, a pseudo-blood vessel in vitro inflammation model was thus constructed in which the upper compartment and the lower compartment of the transwell were isolated from each other via the endothelial layer, and the upper compartment corresponded to the interior of a blood vessel, while the lower compartment corresponded to the site of inflammation outside the blood vessel. Measurements were made of the number of the neutrophils passing from the upper compartment into the lower compartment through the endothelial layer, and the number of the neutrophils adhering to the endothelial layer. […] That is, AHOP was considered to act as an inflammation-inducing substance.
That is, the compound of Example 2 or 3 was added in an amount of 0.01 to 1 microM to the upper compartment or lower compartment of the transwell, and 10 microM AHOP was placed in the lower compartment to induce inflammation. As a control, inflammation was induced in the same way as above but without addition of any compounds of the invention.
Measurements were made of the number of the neutrophils passing from the upper compartment into the lower compartment through the endothelial layer, and the number of the neutrophils adhering to the endothelial layer. A relative neutrophil count (%) was calculated from the following equation:
Relative neutrophil count (%)=[number of neutrophils (passing and adhering) in the experimental group]/[number of neutrophils (passing and adhering) in the control]×100

cancer cell strain F10 = details: F10 cells; AHOP concentration of 10^−8 to 10^−6 M; maximum; cited from earlier work
Edg receptors = assay: Competition experiments using ^3H-AHOP on HL60 cells; type: binding; details: for competition with ^3H-AHOP: HL60 cells, ^3H-AHOP 1 nM, unlabeled compound 10 nM, 30 nM or 100 nM, 30 minutes at 4° C.; for inhibition of binding of ^3H-AHOP (to HL60 cells): compound 1 nM, 3 nM and 10 nM, FIG. 2
Procedure: The same premyeloblastoma cell strain HL60 expressing Edg receptors on the cell surface as used in Example 4 was used. The cells were harvested by centrifugation, then suspended in an F-12 culture medium (stored at 4° C., 10 ml), and carried into an RI laboratory. ^3H-AHOP (15 μCi/1 nM) at an end concentration of 1 nM, and an unlabeled compound (the compound of Example 2 or Example 3) at an end concentration of 10 nM, 30 nM or 100 nM were each added to 200 μl of the cell suspension (1×10^6 cells/ml F-12), and a binding test was conducted for 30 minutes at 4° C. (with occasional stirring). After centrifugation for 7 minutes at 12,000 rpm, the supernatant was rapidly (without damaging cell pellets) discarded with a micropipetter. The cell pellets were suspended in 1.5 ml of Ready Safe (Beckman), whereafter the suspension was transferred into a vial and measured for radioactivity by a liquid scintillation counter L2100 (Beckman).
The compounds of Example 2 and Example 3 were subjected to the same competition experiments as described above, except that they were added at concentrations of 1 nM, 3 nM and 10 nM.

Edg receptor = Edg receptor response test (intracellular Ca^2+ increase by AHOP in HL60 cells); type: cell-based; details: for concentration at which the Ca^2+ concentration increase by AHOP was dose-dependently suppressed / increase in the intracellular Ca^2+ concentration by the addition of AHOP: HL60 cells; for concentration at which the Ca^2+ concentration increase by AHOP was dose-dependently suppressed: AHOP 1 μM, FIG. 1; for increase in the intracellular Ca^2+ concentration by the addition of AHOP: test substance 30 μM, then AHOP 1 μM
Excerpt: HL 60 cells were obtained from a cell bank, and subcultured for about 50 passages over a half-year period in accordance with the method described in BBRC '98, 263, p. 253 using an RPMI-1640 culture medium (Gibco) containing 10% fetal bovine serum to prepare a premyeloblastoma cell strain HL60 expressing Edg receptors on the cell surface. Using the premyeloblastoma cell strain HL60 expressing Edg receptors on the cell surface, the cell response of test substances was investigated. An increase in the intracellular Ca^2+ concentration was measured as an indicator of cell response. It is reported that when the Edg receptor on the HL60 cell surface is bound to AHOP, it phosphorylates G protein to activate IP3 kinase, whereafter the intracellular Ca^2+ concentration increases (FEBS Letter '96, 379, p. 260, BBRC '98, 253, p. 253). Thus, the intracellular Ca^2+ concentration serves as an indicator of Edg receptor response.
A Ca^2+ chelating reagent, Fura-2AM, was taken into HL60 cells.
A cell suspension (1.2 ml) was charged into a quartz cell, which was then mounted on a fluorometer LS50B (Perkin Elmer, for cell measurement). An excitation wavelength was alternately switched between 340 nm (exciting Fura-2 having chelated Ca^2+) and 380 nm (exciting unreacted Fura-2) at intervals of 0.5 milli second, and fluorescence intensity at 510 nm was measured.
Each test substance was added at an end concentration of 30 μM by means of a microsyringe, and then fluorescence intensity was traced to investigate whether Ca^2+ would increase or not. It was also confirmed whether Ca^2+ would increase or not when AHOP (1 μM) was added after addition of the test substance. Through these tests, the AHOP antagonism of each substance was studied.
Suramin, already confirmed to have antagonistic action, was used as a comparison. The experimental procedure was the same as described above, except that AHOP (1 μM) was added after addition of the test substance at varying concentration. An increase in the Ca^2+ concentration was evaluated by an increased Ca^2+ concentration (%) as a value relative to the increased Ca^2+ concentration in a negative control group (no drug added).

[2] = tested on: vascular smooth muscle cells; assay: Action on vascular smooth muscle growth (BrdU assay); type: cell-based; details: rat vascular smooth muscle cells, sphingosylphosphorylcholine 10 μM, 24 hours, FIG. 3
Procedure: Thus, the actions of the compounds of Examples 2 and 3 on the growth of vascular smooth muscle cells were measured in the manner described below. Suramin confirmed to have Edg receptor antagonism was used as a positive control.
The rat carotid intima was rubbed by ballooning, and a tissue fragment was cultured by explant culture. Two weeks later, vascular smooth muscle cells harvested were cultured in a DMEM culture medium (Gibco) containing 10% fetal bovine serum. The cultures were subcultured several times for stabilization, whereafter the subcultures were seeded at a cell density of 5×10^3 cells/cm^2 for use in experiments.
Along with the growth factor sphingosylphosphorylcholine (10 μM), the compound of Example 2 or 3, or suramin was added to the cells, and 24 hours later, the cell density was measured by BrdU assay (Science '82, 218, p. 474, Cytometry '85, 6, p. 584).

[3] = tested on: myocardial infarction due to reperfusion following ligation of the rabbit coronary artery; assay: Ligation-associated myocardial infarction model; type: in vivo
Procedure: The compound of Example 2 was used as a test substance for investigating its effect on myocardial infarction due to reperfusion following ligation of the rabbit coronary artery. Male NZW rabbits (weighing 2.83 to 3.20 kg) were purchased from Kitayama Labes, Co. Ltd., and bred and raised under the conditions: room temperature 20-26° C., humidity 40-70%, and illumination time 12 hours/day (7-19:00). The animals were allowed food and water ad libitum, and quarantined and acclimatized for 2 weeks or more. Then, the animals in good health were used. The above rabbits were administered 10 mg/kg of the compound of Example 2 through the jugular vein under anesthesia, and then the compound of Example 2 was continuously infused in a dose of 6.9 micro g/kg/min. In a control group, physiological saline (hereinafter referred to as PS) was administered in the same manner as in the experimental group. Then, coronary artery was ligated for 30 minutes, whereafter the ligature was released for reperfusion, and the blood pressure in the carotid artery, the pulse rate and the number of arrhythmias were measured. The carotid arterial blood pressure and pulse rate were measured before administration, during continuous intravenous infusion, during the ligation period (15 minute later and 30 minutes later), and during reperfusion. The carotid arterial blood pressure was calculated as mean blood pressure. The number of arrhythmias was counted as the number of extrasystoles that appeared during the ligation period (for 30 minutes) or during reperfusion. After 3 hours of reperfusion, the heart was removed, and sliced into 6 pieces. The living tissues were stained with 2,3,5-triphenyltetrazolium […] (TTC), the area of the infarct due to ligation was measured, and the percent of the infarct with respect to the area of the left ventricle was calculated.

[4] = rabbit acute myocardial infarction models
[5] = rabbit, 10 mg/kg jugular vein then 6.9 micro g/kg/min infusion
[6] = rabbit, 10 mg/kg then 6.9 micro g/kg/min, ligation 15 min
[7] = rabbit, 10 mg/kg then 6.9 micro g/kg/min, ligation 30 min
[8] = rabbit, 10 mg/kg then 6.9 micro g/kg/min, reperfusion 180 min
[9] = rabbit, baseline before administration

CCCCCCCCCCCCCC=CC(O)C(N)COP(=O)(O)O (stereo not drawn) [AHOP, 2-amino-3-hydroxy-4-octadecene-1-phosphate, reference compound]
transmigration through the endothelial layer and adhesion of the neutrophils (inflammation-inducing action) ([1]; AHOP 10 microM in lower compartment): promoted significantly
suppression of migration (cancer cell strain F10): ~80%

CCCCCCCCCCCCCC[C@H](O)C(=O)N[C@H](CO)[C@@H](O)/C=C/CC/C=C(\C)CCCCCCCCC [Example 1, (4E,8E,2R,3S,2′S)-N-2′-hydroxyhexadecanoyl-9-methyl-4,8-octadecadiene-1,3-diol]
melting point: 62 to 63 °C

CCCCCCCCCCCCCC[C@H](O)C(=O)N[C@H](CO)[C@@H](O)/C=C/CC/C=C(\C)CCCCCCCCC [Example 2, (4E,8E,2R,3S,2′S)-N-2′-hydroxyhexadecanoyl-9-methyl-4.8-octadecadiene-1,3-diol]
neutrophil transmigration and adhesion [1]: suppressed
competition with ^3H-AHOP (Edg receptors): competitive with ^3H-AHOP
inhibition of binding of ^3H-AHOP (to HL60 cells) (Edg receptors): Dose-dependent inhibition
strength of the action in comparison with suramin (ED50) (Edg receptor; ED50 for intracellular Ca^2+ increase): about 40 times
concentration at which the Ca^2+ concentration increase by AHOP was dose-dependently suppressed (Edg receptor): 0.03 to 0.3 µM
increase in the intracellular Ca^2+ concentration by the addition of AHOP (Edg receptor): inhibited
concentrations at which vascular smooth muscle growth was inhibited [2]: 0.3 to 3 µM
ligation-associated decrease in pulse rate (in words) [3, 4]: tended to inhibit
number of arrhythmias due to ligation (in words) [3, 4]: reduce the number of arrhythmias due to ligation
percent area of the infarct (in words) [3, 4]: tendency toward decreasing
Mean blood pressure, continued i.v. infusion [3, 5]: 74 ± 9 mmHg
Pulse rate, continued i.v. infusion [3, 5]: 283 ± 10 beats/min
Mean blood pressure, ligation 15 min [3, 6]: 59 ± 10 mmHg
Pulse rate, ligation 15 min [3, 6]: 270 ± 9 beats/min
Mean blood pressure, ligation 30 min [3, 7]: 66 ± 8 mmHg
Pulse rate, ligation 30 min [3, 7]: 282 ± 4 beats/min
Mean blood pressure, reperfusion 180 min [3, 8]: 68 ± 4 mmHg
Pulse rate, reperfusion 180 min [3, 8]: 256 ± 10 beats/min
Infarct/left ventricle (percent area of the infarct) ([3]; rabbit, after 3 hours of reperfusion, TTC staining): 14.0 ± 2.1%
Mean blood pressure, before administration [3, 9]: 83 ± 4 mmHg
Pulse rate, before administration [3, 9]: 301 ± 9 beats/min
number of arrhythmias, reperfusion ([3]; rabbit, extrasystoles during reperfusion): 17 ± 6
number of arrhythmias, ligation ([3]; rabbit, extrasystoles during the ligation period (30 minutes)): 12 ± 5

CCCCCCCCCCCCCCC(O)C(=O)N[C@@H](CO)[C@H](O)/C=C/CCCC(C)CCCCCCCCC (stereo partly drawn) [Example 3, (4E,2S,3R,2′RS)-N-2′-hydroxyhexadecanoyl-9-methyl-4-octadecene-1,3-diol]
neutrophil transmigration and adhesion [1]: suppressed
competition with ^3H-AHOP (Edg receptors): competitive with ^3H-AHOP
inhibition of binding of ^3H-AHOP (to HL60 cells) (Edg receptors): Dose-dependent inhibition
concentration at which the Ca^2+ concentration increase by AHOP was dose-dependently suppressed (Edg receptor): 0.3 to 3 µM
increase in the intracellular Ca^2+ concentration by the addition of AHOP (Edg receptor): inhibited
concentrations at which vascular smooth muscle growth was inhibited [2]: 1 to 10 µM
melting point: 52 to 57 °C
